Values of other authors as cited in patent US20240230688A1, “METHOD FOR DETERMINING PERSONALIZED OMEGA-3 DOSE” (SOCIETE DES PRODUITS NESTLE S.A., priority 2021, published 2024).

Test system: pregnant women
Details: women who took supplement during pregnancy compared to those who did not

CC/C=C\C/C=C\C/C=C\C/C=C\C/C=C\C/C=C\CCC(=O)O [DHA supplement, (4Z,7Z,10Z, 13Z, 16Z, 19Z)-4,7,10,13,16, 19-Docosahexaenoic acid]
less likely to have early preterm birth: 42%
